Results published in the supplement of paper PMC10307832.

Key:
Experiment in all cases: relative viability (nuclei count vs DMSO), 5 days (fraction); higher = more cells survive
[1] = compound: CS(=O)(=O)c1ccc(-c2cnc(N)c(C(=O)Nc3ccccc3)n2)cc1 [VE-821] + CC(=O)c1c(C)c2cnc(Nc3ccc(N4CCNCC4)cn3)nc2n(C2CCCC2)c1=O [Palbociclib] (partner 0.5 µM)
How it was run: (§1)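 Relative viability is defined as nuclei in treated wells over nuclei in vehicle wells. Duplicate plates were run and medians reported. Lung cancer cell lines in 1536-well plates were dosed by pin tool one day after seeding, with one drug or with a fixed anchor-drug dose plus five library-drug doses (not always all listed) in √10 steps, and nuclei were counted after 5 days.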

[2] = compound: CS(=O)(=O)c1ccc(-c2cnc(N)c(C(=O)Nc3ccccc3)n2)cc1 [VE-821] + CC(C)C[C@H](NC(=O)[C@H](Cc1ccccc1)NC(=O)c1cnccn1)B(O)O [Bortezomib] (partner 0.002 µM)
How it was run: as §1

[3] = compound: CS(=O)(=O)c1ccc(-c2cnc(N)c(C(=O)Nc3ccccc3)n2)cc1 [VE-821] + Cc1nc(Nc2ncc(C(=O)Nc3c(C)cccc3Cl)s2)cc(N2CCN(CCO)CC2)n1 [Dasatinib] (partner 0.075 µM)
How it was run: as §1

[4] = compound: N#CC[C@H](C1CCCC1)n1cc(-c2ncnc3[nH]ccc23)cn1 [Ruxolitinib] + N=C(N)NC(=N)NCCc1ccccc1 [Phenformin] (partner 250 µM)
How it was run: as §1

UMC-11
relative viability ([1]; first compound 0.08 µM): 0.339 | relative viability ([1]; first compound 0.253 µM): 0.309 | relative viability ([1]; first compound 0.8 µM): 0.338 | relative viability ([1]; first compound 2.53 µM): 0.377 | relative viability ([1]; first compound 8 µM): 0.299 | relative viability ([2]; first compound 0.08 µM): 0.873 | relative viability ([2]; first compound 0.253 µM): 0.707 | relative viability ([2]; first compound 0.8 µM): 0.794 | relative viability ([2]; first compound 2.53 µM): 0.789 | relative viability ([2]; first compound 8 µM): 0.641 | relative viability ([3]; first compound 0.08 µM): 0.553 | relative viability ([3]; first compound 0.253 µM): 0.44 | relative viability ([3]; first compound 0.8 µM): 0.516 | relative viability ([3]; first compound 2.53 µM): 0.524 | relative viability ([3]; first compound 8 µM): 0.374 | relative viability ([4]; first compound 0.08 µM): 0.344 | relative viability ([4]; first compound 0.253 µM): 0.326 | relative viability ([4]; first compound 0.8 µM): 0.356 | relative viability ([4]; first compound 2.53 µM): 0.279 | relative viability ([4]; first compound 8 µM): 0.257
